The target of data set [1] is T1, MAO-A (Rattus norvegicus, UniProt P21396).
T1 construct: of the invention in rat brain mitochondria; from tissue; host or cells: rat brain, crude mitochondrial fraction (male Wistar rats)
T1 sequence (P21396 1-526): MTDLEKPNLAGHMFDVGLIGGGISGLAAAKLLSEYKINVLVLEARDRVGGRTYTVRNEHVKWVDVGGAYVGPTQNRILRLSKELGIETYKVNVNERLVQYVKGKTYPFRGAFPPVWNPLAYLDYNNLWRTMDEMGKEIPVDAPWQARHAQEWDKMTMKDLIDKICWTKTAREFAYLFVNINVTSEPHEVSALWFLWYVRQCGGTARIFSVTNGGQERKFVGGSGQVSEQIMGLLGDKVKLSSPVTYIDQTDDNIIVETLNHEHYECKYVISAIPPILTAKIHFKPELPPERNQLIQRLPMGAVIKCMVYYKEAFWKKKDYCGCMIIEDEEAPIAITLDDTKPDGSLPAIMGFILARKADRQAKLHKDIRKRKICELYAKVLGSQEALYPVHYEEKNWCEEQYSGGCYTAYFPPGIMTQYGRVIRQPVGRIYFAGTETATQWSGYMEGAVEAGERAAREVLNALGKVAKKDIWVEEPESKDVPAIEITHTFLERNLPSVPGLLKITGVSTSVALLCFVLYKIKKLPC
Description: In vitro MAO-A enzyme activity assay (radioenzymatic, 14C-serotonin) in rat brain mitochondria. It is filed as biochemical. On the procedure: (§1) In Vitro MAO-A and MAO-B Enzyme Activities Assay
(§2) —Membrane Preparations (Crude Mitochondrial Fraction)
(§3) The crude homogenate was centrifuged at 2220 rpm for 10 minutes at +4° C. and the supernatant recovered. The pellet was homogenized and centrifuged again. The two supernatants were pooled and centrifuged at 9250 rpm for 10 minutes. The pellet was resuspended in fresh buffer and centrifuged at 11250 rpm for 10 minutes at +4° C. The resulting pellet was stored at −80° C.
(§4) —In Vitro Enzyme Activities Assay
(§5) The enzyme activities were assessed with a radioenzymatic assay using the substrates ^14C-serotonin (5-HT) and ^14C-phenylethylamine (PEA) for MAO-A and MAO-B, respectively.
(§6) The mitochondrial pellet (500 μg protein) was resuspended in 0.1 M phosphate buffer (pH 7.4). 500 μl of the suspension were added to a 50 μl solution of the test compound or buffer, and incubated for 30 min at 37° C. (preincubation) then the substrate (50 μl) was added. The incubation was carried out for 30 minutes at 37° C. (^14C-5-HT, 5 μM) or for 10 minutes at 37° C. (^14C-PEA, 0.5 μM).
(§7) After centrifugation, the deaminated metabolites were extracted with 3 ml of diethyl ether (5-HT) or toluene (PEA) and the radioactive organic phase was measured by liquid scintillation spectrometry at 90% efficiency. The amount of neutral and/or acidic metabolites formed as a result of MAO activity was obtained by measuring the radioactivity of the eluate.
(§8) The activity of MAO in the sample, corresponding to a percentage of radioactivity compared with the control activity in the absence of the inhibitor, was expressed as nmoles of substrate transformed/mg protein/min.
(§9) The drug inhibition curves were obtained from at least eight different concentration points, each in duplicate (10^−10 to 10^−5 M).

Data set [2] concerns the target T2, MAO-B (Rattus norvegicus, UniProt P19643).
T2 construct: of the invention in rat brain mitochondria; from tissue; host or cells: rat brain, crude mitochondrial fraction (male Wistar rats)
T2 sequence (P19643 1-520): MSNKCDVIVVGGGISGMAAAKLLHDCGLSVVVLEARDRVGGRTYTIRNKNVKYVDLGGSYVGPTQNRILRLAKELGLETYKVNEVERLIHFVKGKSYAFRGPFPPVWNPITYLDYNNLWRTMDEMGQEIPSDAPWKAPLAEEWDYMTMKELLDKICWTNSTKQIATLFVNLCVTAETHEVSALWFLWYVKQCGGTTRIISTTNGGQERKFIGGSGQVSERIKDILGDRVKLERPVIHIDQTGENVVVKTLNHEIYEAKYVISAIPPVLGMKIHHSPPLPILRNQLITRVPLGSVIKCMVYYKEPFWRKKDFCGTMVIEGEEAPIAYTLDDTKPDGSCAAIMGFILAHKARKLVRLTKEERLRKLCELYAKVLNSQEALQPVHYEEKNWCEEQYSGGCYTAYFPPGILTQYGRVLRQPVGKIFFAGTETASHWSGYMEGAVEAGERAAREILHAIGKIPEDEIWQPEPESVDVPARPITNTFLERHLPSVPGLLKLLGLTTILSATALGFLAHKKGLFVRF
Put plainly: In vitro MAO-B enzyme activity assay (radioenzymatic, 14C-phenylethylamine) in rat brain mitochondria. It is filed as biochemical. On the procedure:
as §1, §2, §3, §4, §5, §6, §7, §8, §9

Data set [3] has as its system mouse closed head injury model. The conditions noted are these: 1 mg/kg; cited from earlier work.
Data set [4] deals with rat photo-oxidative induced retinopathy model. Put plainly: Rat photo-oxidative induced retinopathy model (blue-light exposure; ERG and retinal morphology). The conditions noted are these: for Maximum ERG a-wave responses, % of normal: 5 days after 6-hour blue-light exposure. Type of data set: in vivo. The method, then: Neuroprotective Activity of MAO Inhibitors in the Rat Photo-Oxidative Induced Retinopathy Model
Prevention of Photo-oxidative injury with Safinamide: The efficacy of Safinamide, a short acting MAO-B inhibitor, to protect retinal cells against the induction of photochemical lesions by blue-light exposure was assessed by measuring light-induced changes in retinal functioning (electroretinogram (ERG)) and evaluating retinal morphology changes.
Subjects. Male Sprague Dawley rats were randomly assigned to drug or vehicle experimental groups. Rats receiving vehicle (N=15) or drug treatment (Safinamide: 5 mg/kg, N=10; 15 mg/kg, N=10; 30 mg/kg, N=10; and 60 mg/kg, N=9) were pre-dosed (IP) at 48, 24 and 0 hours prior to a 6-hour light exposure (spectrally filtered blue light (˜220 fc)) and 24 and 48 hours after light exposure. Control rats were housed in their home cage under normal cyclic light exposure. Control rats were not dosed with either vehicle or drug.
Retinal Function Assessment. The ERG is a non-invasive clinical measurement of the electrical response of the eye to a flash of light. The a-wave and b-wave are two components of the ERG that are diagnostic of retinal function. The a-wave reflects outer retina function and is generated by interactions between photoreceptor and RPE while the b-wave reflects inner retina function, particularly on-bipolar cells. […] Changes in the a-wave amplitude or latency are diagnostic of outer retina pathology. The ERG was recorded after a five day recovery period from dark-adapted anesthetized rats (ketamine-HCl, 75 mg/Kg; xylazine, 6 mg/Kg). The eye's electrical response to a flash of light was elicited by viewing a ganzfeld. ERGs to a series of light flashes increasing in intensity were digitized to analyze temporal characteristics of the waveform and response voltage-log intensity relationship.
Light Microscopic Assessment of Retinal Lesions. Ocular tissues were fixed in a mixture of paraformaldehyde and glutaraldehyde, dehydrated in an ascending ethanol series, embedded in JB-4 plastic resin, and 1 to 1.5-micron thick sections were analyzed using a quantitative computer image analysis system attached to the microscope. Retinal Pigment Epithelium (RPE), Outer Nuclear Layer (ONL) and Inner to Nuclear Layer (INL) thickness as well as the length of inner segments (IS), where mitochondria are located, and outer segments (OS), which contain the light sensitive photopigment, were measured to assess outer retina protection.

The test system is the same in data set [5]. The description is as above. It is filed as in vivo. The following applies: 15 to 60 mg/kg IP, 1-month recovery period.
The subject of data set [6] is light-induced functional or morphological changes. Put plainly: Light damage paradigms used by the present inventors. Type of data set: in vivo.
Where [7] appears, read: 15 and 60 mg/kg, light microscopy.

Results on 14 compounds are retold here after US20110160308A1, “Use of Monoamine Oxidase Inhibitors to Treat Outer Retina Disorders” (ALCON RESEARCH, LTD., priority 2006, published 2011).

Entries after “also recorded” stand apart in the source; their conditions may differ.

As to `CN(CC(N)=O)Cc1ccc(OCc2cccc(Cl)c2)cc1` [2-{[4-(3-Chloro-benzyloxy)-benzyl]-methyl-amino}-acetamide], the results for the IC50 in data set [1] and in data set [2] were 50000 nM and 40 nM, respectively.

For the compound `NC(=O)[C@@H](CO)NCc1ccc(OCc2cccc(Cl)c2)cc1` [(R)-2-[4-(3-Chloro-benzyloxy)-benzylamino]-3-hydroxy-propionamide], the results for the IC50 in data set [1] and in data set [2] were greater than 100000 nM and 110 nM, respectively.

Turning to `C[C@H](NCc1ccc(OCC2CCCCC2)cc1)C(N)=O` [(S)-2-(4-Cyclohexylmethoxy-benzylamino)-propionamide], the figures for the IC50 in data set [1] and in data set [2] were 301000 nM and 30 nM, respectively.

For the compound `C[C@H](NCc1ccc(OCc2ccccc2F)cc1)C(N)=O` [(S)-2-[4-(2-Fluoro-benzyloxy)-benzylamino]-propionamide], the IC50 in data set [1] stood at 228000 nM; in data set [2], 180 nM.

As to `NC(=O)[C@H](CO)NCc1ccc(OCc2cccc(Cl)c2)cc1` [(S)-2-[4-(3-Chloro-benzyloxy)-benzylamino]-3-hydroxy-propionamide], the IC50 in data set [1] worked out at 84000 nM; in data set [2], 40 nM.

Turning to `C[C@H](NCc1ccc(OCc2cccc(Cl)c2)cc1)C(N)=O` [(S)-2-[4-(3-Chloro-benzyloxy)-benzylamino]-propionamide], the results for the IC50 in data set [1] and in data set [2] were 114000 nM and 30 nM, respectively.

Consider `NC(=O)[C@H](CO)NCc1ccc(OCc2cccc(F)c2)cc1` [(S)-2-[4-(3-Fluoro-benzyloxy)-benzylamino]-3-hydroxy-propionamide], for which, in data set [2], half-maximal inhibition (IC50) was put at 140 nM.

Consider `C[C@H](NCc1ccc(OCc2ccc(F)cc2)cc1)C(N)=O` [(S)-2-[4-(4-Fluoro-benzyloxy)-benzylamino]-propionamide], for which the IC50 in data set [1] turned out to be 93000 nM; in data set [2], 60 nM.

Take `C[C@@H](C(N)=O)N(C)Cc1ccc(OCc2cccc(Cl)c2)cc1` [(S)-2-{[4-(3-Chloro-benzyloxy)-benzyl]-methyl-amino}-propionamide]: the IC50 in data set [1] was 82000 nM; in data set [2] it was 60 nM.

As for `C#CCN[C@@H]1CCc2ccccc21` [Rasagiline], the cerebral edema reduction in data set [3] was 40-50%.

As to `C[C@H](NCc1ccc(OCc2cccc(F)c2)cc1)C(N)=O` [Safinamide, (S)-2-[4-(3-Fluoro-benzyloxy)-benzylamino]-propionamide], the values for the IC50 in data set [1] and in data set [2] were 584000 nM and 90 nM, respectively. In addition, the “Maximum ERG a-wave responses, % of normal” value in data set [4] (5 mg/kg IP) was 52 % of normal; in data set [4] (15 mg/kg IP), “greater than 70 % of normal”; in data set [4] (30 mg/kg IP), “greater than 70 % of normal”. The “Retinal responses (ERG) compared to control rats” value in data set [4] (60 mg/kg IP, 5 days after blue-light exposure) is “not significantly diminished compared to control rats”. For the same compound, in data set [4] (60 mg/kg, light microscopy), the “photoreceptor segment length compared to vehicle-dosed rats” value was “significantly longer”. Moreover, the retinal lesions result is listed as “devoid of any significant retinal lesions” in data set [4] (60 mg/kg, light microscopy) and “devoid of significant retinal lesions” in data set [4] (60 mg/kg, light microscopy, listed as safinamide). For the same compound, the “ERG (retinal function) protection compared to vehicle-dosed rats” value in data set [4] (5-60 mg/kg IP, 5-day recovery period) is reported as “Significant dose-dependent protection of retinal function; also recorded: significant ERG protection”. For the same compound, in data set [4] (setting [7]), the “ONL thickness compared to vehicle-dosed rats” value is “significantly thicker”. The “RPE thickness compared to vehicle-dosed rats” value in data set [4] (setting [7]) is given as “thicker RPE compared to vehicle-dosed rats”. The “reduction in retinal lesions across doses” value in data set [4] (light microscopy, all doses) is recorded as “Dose-dependent reduction in retinal lesions”. Further, the “ERG a- and b-wave function after 1-month recovery” value in data set [5] was “not significantly different from normal; also recorded: normal ERG a- and b-wave function”; in data set [5] (listed as safinamide), “significant and complete retinal function protection”.

For the compound `Fc1ccc(C(c2ccc(F)cc2)N2CCN(C/C=C/c3ccccc3)CC2)cc1` [flunarizine], the “preventing light-induced functional or morphological changes” value in data set [6] is recorded as “moderately effective”.

As to `COCCOC(=O)C1=C(C)NC(C)=C(C(=O)OC(C)C)C1c1cccc([N+](=O)[O-])c1` (stereo not drawn) [nimodipine], in data set [6], the “preventing light-induced functional or morphological changes” value is “no effect”.

Regarding `Cc1c(C)c2c(c(C)c1O)CC[C@@](C)(CCC[C@H](C)CCC[C@H](C)CCCC(C)C)O2` [α-tocopherol], in data set [6], the “preventing light-induced functional or morphological changes” value is recorded as “ineffective”.

For orientation: IC50 means the concentration that inhibits the measured activity by half. A high value points to a need for much substance.
